Source: patent US10358454B2, “Marinopyrrole derivatives and methods of making and using same” (H. LEE MOFFITT CANCER CENTER AND RESEARCH INSTITUTE, INC., priority 2014, dated 2019)
“Also recorded” adds a separate entry of the source. Read-outs that look alike come from different tables or passages of the source.

Experiments:
Solubility = details: aqueous solubility
Bcl-xL/Bim = Bcl-xL/Bim (Homo sapiens, UniProt Q07817); experiment: Bcl-xL/Bim ELISA (GST-Bcl-xL binding to biotinylated Bim BH3 peptide)
Protocol: (§1) ELISAs were performed using a modified version of a previously described procedure (Doi K et al. J. Biol. Chem. 2012, 287, 10224-10235). Briefly, 40 nM of biotinylated Bim BH3 peptide (Biomatik) in SuperBlock blocking buffer (Pierce) was incubated in high-binding capacity streptavidin-coated plates (Pierce) for 2 h. Compounds were diluted in 120 μl of PBS containing 10 nM of GST-Mcl-1 or GST-Bcl-xL in 1.5 mL tubes for 15 min. Wells were washed with wash buffer (PBS containing 0.05% Tween-20) and then 100 μL of the compound/GST-protein mixture was transferred to the wells. The plates were incubated for 2 h, and then the wells were washed with wash buffer. HRP-conjugated anti-GST antibody (Bethyl Laboratories) was diluted 1:2000 in SuperBlock and 100 μL was transferred to each well. The plate was incubated for 1 h, and then the wells were washed with wash buffer followed by PBS. 100 μL of SureBlue TMB Microwell Peroxidase Substrate (VWR) was added to each well and plates were developed for 5-10 min. 100 μL of 1 N HCl was added to each well to stop the reaction and absorbance was read at 450 nm using a μQuant plate reader (Bio-Tek).
(§2) ELISAs were performed using a similar procedure as previously described (Doi K, et al. J. Biol. Chem. 2012, 287, 10224-10235). Briefly, 40 nM of biotinylated Bim BH3 peptide (Biomatik) in SuperBlock blocking buffer (Pierce) was incubated in high-binding capacity streptavidin-coated plates (Pierce) for 2 h. Compounds were diluted in 120 μl of PBS containing 10 nM of GST-Mcl-1 or GST-Bcl-xL in 1.5 mL tubes for 15 min. Wells were washed with wash buffer (PBS containing 0.05% Tween-20) and then 100 μL of the compound/GST-protein mixture was transferred to the wells. The plates were incubated for 2 h, and then wells were washed with wash buffer. HRP-conjugated anti-GST antibody (Bethyl Laboratories) was diluted 1:2000 in SuperBlock and 100 μL was transferred to each well. The plate was incubated for 1 h, and then wells were washed with wash buffer followed by PBS. 100 μL of SureBlue TMB Microwell Peroxidase Substrate (VWR) was added to each well and plates were developed for 5-10 min. 100 μL of 1 N HCl was added to each well to stop the reaction and absorbance was read at 450 nm using μQuant plate reader (Bio-Tek).

Mcl-1/Bim = Mcl-1/Bim (Homo sapiens, UniProt Q07820); experiment: Mcl-1/Bim ELISA (GST-Mcl-1 binding to biotinylated Bim BH3 peptide); details: for selectivity for Mcl-1 over Bcl-xL (Mcl-1/Bim over Bcl-xL/Bim): ratio of ELISA IC50 values
Protocol: as §1, §2

[1] = Stability in 1 M NaOH at room temperature, HPLC analysis; details: for remained intact: after 48 hours
[2] = pKa and log p calculated using ChemAxon Software Version 5.12.3; details: difference to phenol pKa […]
Protocol: Both pKa and log p values were calculated using ChemAxon Software Version 5.12.3 (Dixon S L and Jurs P C. J. Comp. Chem. 1993, 14, 1460-1467; Csizmadia F et al. J. Pharm. Sci. 1997, 86, 865-871).

[3] = system: human breast cancer MDA-MB-468 cells; experiment: Western blotting of MDA-MB-468 cells treated with marinopyrrole derivatives (Mcl-1, Bim, caspase 3); format: cell-based; details: 10 μM for 16 h
Protocol: The cells were then processed for western blotting according to a previously described methods (Balasis M E et al. Clin. Cancer Res. 2011, 17, 2852-2862). […] However, none of the cyclic marinopyrroles were active in intact cells.
as §1

[4] = system: cultured human cancer cells; experiment: Induction of apoptosis in cultured human cancer cells; format: cell-based; details: intact cell studies
[5] = system: A-549 human lung cancer cells; experiment: MTT assay (anchorage-dependent proliferation); format: cell-based; details: 48 hours, compared with 1
[6] = system: Bim/Mcl-1 and Bim/Bcl-xL in MDA-MB-468 cancer cells; experiment: Co-immunoprecipitation and densitometry of Bim/Mcl-1 and Bim/Bcl-xL in treated cells; format: cell-based, human; details: compared with 1
MDA-MB-468 cells [7] = experiment: Soft agar assay (anchorage-independent growth); format: cell-based, human; details: 21 days, compared with 1
[8] = system: A-549 human lung cancer cells; experiment: Soft agar assay (anchorage-independent growth); format: cell-based; details: 21 days, compared with 1
A-549 xenografts = A-549 xenografts in nude mice; format: in vivo; details: 4 mpk/day for 14 days
MDA-MB-468 cells [9] = experiment: Western blots of MDA-MB-468 cells treated with 1 and I-2 (Bcl-2 family proteins, Caspase 3 and PARP cleavage); format: cell-based, human
MDA-MB-468 cells [10] = experiment: MTT assay (anchorage-dependent proliferation); format: cell-based, human; details: 48 hours, compared with 1
Mcl-1 [11] = biological target: T1, Mcl-1 (Homo sapiens, UniProt Q07820); experiment: 15N-HSQC NMR chemical shift perturbation with docking; format: binding; design: MBP (cleaved yes); made in house; host or cells: E. coli BL21(DE3) Codon+; details: HSQC chemical shift changes
Protocol: ^15N-HSQC spectra were recorded on ^15N-labelled Mcl-1 at 0.1 mM prepared in 50 mM potassium phosphate solution at pH 6.5, 50 mM NaCl and 1 mM DTT. Titrations up to 100 μM of 1-21 and 1-18 compounds were performed. NMR spectra were acquired at 25° C. on an Inova 600 MHz spectrometer equipped with a cryoprobe and analyzed in CCPNMR (Vranken W F, et al. Proteins. 2005, 59, 687-696).
NMR-guided docking of 1-21 into the X-ray crystal structure of Mcl-1 (PDB ID: 3KJ0) was performed using Glide (Maestro, Schrodinger) (Friesner R A et al. J. Med. Chem. 2004, 47, 1739-1749; Friesner R A, et al. J. Med. Chem. 2006, 49, 6177-6196; Halgren T A, et al. J. Med. Chem. 2004, 47, 1750-1759; Gavathiotis E, et al. Nat. Chem. Biol. 2012, 8, 639-645). The lowest-energy docking pose is consistent with the observed NMR-chemical shift perturbation data. Pymol is used for preparing the highlighted poses.
Structural characterization of I-20 and II-4 was performed using NMR. HSQC spectra were collected at different ratios of compound:Mcl-1. […] The residues that undergo chemical shift changes upon compounds' binding onto the structure of Mcl-1 and the compounds' binding location were mapped (FIG. 6B). An induced fit molecular docking approach guided by the NMR chemical shifts was used to determine the structural models of the compounds bound to Mcl-1 using Glide software (Schrodinger; FIG. 6C). […]
Target sequence in this assay (Q07820 172-327): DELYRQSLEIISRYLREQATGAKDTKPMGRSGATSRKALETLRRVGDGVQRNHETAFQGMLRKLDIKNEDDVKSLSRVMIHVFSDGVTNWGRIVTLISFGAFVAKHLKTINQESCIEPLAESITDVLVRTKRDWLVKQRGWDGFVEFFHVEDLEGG

Mcl-1 [12] = biological target: T1, Mcl-1; experiment: Fluorescence-quenching (FQ) assay based on intrinsic Trp fluorescence of Mcl-1; format: binding; details: for Kd: binding isotherms, read-out: Kd (binding constant)
From the text: To investigate direct binding of compounds to Mcl-1, a fluorescence-quenching (FQ) assay based on the intrinsic Trp fluorescence of Mcl-1 was established.
Target sequence in this assay (Q07820 whole entry): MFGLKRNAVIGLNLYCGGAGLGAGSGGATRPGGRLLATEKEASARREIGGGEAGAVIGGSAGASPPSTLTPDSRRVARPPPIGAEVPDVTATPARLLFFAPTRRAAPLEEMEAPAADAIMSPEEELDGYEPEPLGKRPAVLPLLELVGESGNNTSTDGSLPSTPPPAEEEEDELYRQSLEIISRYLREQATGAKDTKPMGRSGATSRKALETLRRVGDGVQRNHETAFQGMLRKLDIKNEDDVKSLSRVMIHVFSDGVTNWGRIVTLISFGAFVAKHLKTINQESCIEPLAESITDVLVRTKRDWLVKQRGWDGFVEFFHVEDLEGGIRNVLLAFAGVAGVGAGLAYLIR

[13] = Table 2-A, n ≥ 3, read-out: Bcl-xL/Bim IC50 (average ± SEM)
[14] = Table 2-B, n ≥ 3 unless specified, read-out: Bcl-xL/Bim IC50 (average ± SEM)
[15] = Table 3-A structure I, Bcl-xL at 10 nM, n ≥ 3, read-out: Bcl-xL-Bim IC50 (average ± SEM)
[16] = Table 2-A, n ≥ 3, read-out: Mcl-1/Bim IC50 (average ± SEM)
[17] = Table 2-B, n ≥ 3, read-out: Mcl-1/Bim IC50 (average ± SEM)
[18] = Table 3-A structure I, Mcl-1 at 10 nM, n ≥ 3, read-out: Mcl-1-Bim IC50 (average ± SEM)
[19] = read-out: IC50 to inhibit the binding of Mcl-1 to Bim

Sequence of Mcl-1/Bim (Q07820 whole entry): as above
Sequence of Bcl-xL/Bim (Q07817 whole entry): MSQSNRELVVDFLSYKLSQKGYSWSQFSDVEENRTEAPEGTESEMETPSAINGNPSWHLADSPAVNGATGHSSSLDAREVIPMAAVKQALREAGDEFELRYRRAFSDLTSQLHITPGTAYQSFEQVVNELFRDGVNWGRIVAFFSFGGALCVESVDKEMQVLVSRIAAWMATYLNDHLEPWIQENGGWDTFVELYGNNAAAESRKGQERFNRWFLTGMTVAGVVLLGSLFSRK

| Structure (SMILES) | solubility in words (Solubility) | IC50 (Bcl-xL/Bim; [13]) | IC50 (Bcl-xL/Bim; [14]) | IC50 (Bcl-xL/Bim; [15]) | IC50 (Mcl-1/Bim; [16]) | IC50 (Mcl-1/Bim; [17]) | IC50 (Mcl-1/Bim; [18]) | selectivity for Mcl-1 over Bcl-xL (Mcl-1/Bim over Bcl-xL/Bim) (Mcl-1/Bim) | IC50 (Mcl-1/Bim; [19]) | remained intact [1] | effect on levels of Mcl-1 and Bim and cleavage of caspase 3 [3] | activity against Bcl-xL/Bim in words (Bcl-xL/Bim) | direct binding to Mcl-1 by fluorescence quenching (Mcl-1 [12]) | Kd (Mcl-1 [12]) | other results |
| --- | --- | --- | --- | --- | --- | --- | --- | --- | --- | --- | --- | --- | --- | --- | --- |
| O=C(c1ccccc1O)c1[nH]c(Cl)c(Cl)c1-n1c(C(=O)c2ccccc2O)cc(Cl)c1Cl (racemic) [(±)-1, (±)-marinopyrrole A, reference compound] | poor solubility | 16.4 ± 3.3 µM | 16.4 ± 3.3 µM | 16.4 ± 3.3 µM | 8.9 ± 1 µM | 8.9 ± 1 µM | 8.9 ± 1 µM | 1.8 fold | 8.9 µM | 76% | able to decrease Mcl-1 and Bim and to cleave caspas 3 |  |  |  | IC50 (Bcl-xL/Bim; Table 1, Bcl-xL at 10 nM, n ≥ 3, read-out: Bcl-xL-Bim IC50 (average ± SEM)): 16.4 ± 3.3 µM; IC50 (Bcl-xL/Bim; read-out: IC50 to inhibit Bcl-xL/Bim binding): 16.4 µM; IC50 (Mcl-1/Bim; Table 1, Mcl-1 at 10 nM, n ≥ 3, read-out: Mcl-1-Bim IC50 (average ± SEM)): 8.9 ± 1 µM; selectivity for Mcl-1 over Bcl-xL (Mcl-1/Bim over Bcl-xL/Bim) (Mcl-1/Bim; listed as marinopyrrole A): two fold; stability in words ([1]; 1 to 48 hours): highly stable; pKa values lower than that of phenol [2]: 1.6-2.2 log units |
| C#Cc1ccc(C(=O)c2[nH]c(Cl)c(Cl)c2-n2c(C(=O)c3ccc(C#C)cc3O)cc(Cl)c2Cl)c(O)c1 [Compound 1-3, (4,4′,5,5′-Tetrachloro-1′H-1,3′-bipyrrole-2,2′-diyl)bis((4-ethynyl-2-hydroxyphenyl)methanone)] |  |  | 5.6 ± 0.5 µM | 5.6 ± 0.5 µM |  | 3.9 ± 0.2 µM | 3.9 ± 0.2 µM |  | 3.7 µM | 81% |  | more potent than 1 |  |  | induction of apoptosis [4]: induced apoptosis; inhibiting anchorage-dependent proliferation (MTT) [5]: more potent than 1; activity against Mcl-1/Bim in words (Mcl-1/Bim): more potent than 1; selectivity profile Mcl-1 vs Bcl-xL in words (Mcl-1/Bim; from Mcl-1/Bim and Bcl-xL/Bim ELISA): dual Mcl-1 and Bcl-XL antagonists; inhibition of binding of Mcl-1 and Bcl-xL to Bim in cells [6]: more potent than 1; inhibiting anchorage-independent proliferation (soft agar) (MDA-MB-468 cells [7]): more potent than 1; inhibiting anchorage-independent proliferation (soft agar) [8]: more potent than 1; effect on the body weights of the mice (A-549 xenografts): little effect; increase of tumor volumes from day 1 to day 14 (A-549 xenografts; vehicle-treated mice 160±10%): 45±30%; effect on Bcl-2 and Bax levels (MDA-MB-468 cells [9]): little effects; effect on Bim level (MDA-MB-468 cells [9]): slightly decreased; decreasing levels of Mcl-1 and Bcl-xL and increasing levels of Bak and Bad (MDA-MB-468 cells [9]; compared with 1): more potent than 1; inducing apoptosis (Caspase 3 and PARP cleavage) (MDA-MB-468 cells [9]; compared with 1): more potent than 1; inhibiting anchorage-dependent proliferation (MTT) (MDA-MB-468 cells [10]): more potent than 1 |
| O=C(O)Cn1cc(-c2cc(O)c(C(=O)c3[nH]c(Cl)c(Cl)c3-n3c(C(=O)c4cc(Cl)c(-c5cn(CC(=O)O)nn5)cc4O)cc(Cl)c3Cl)cc2Cl)nn1 [Compound 1-19, 2,2′-(4,4′-((4,4′,5,5′-Tetrachloro-1′H-1,3′-bipyrrole-2,2′-dicarbonyl)bis(2-chloro-5-hydroxy-4,1-phenylene))bis(1H-1,2,3-triazole-4,1-diyl))diacetic acid] |  | > 50 µM |  |  | 5.2 ± 0.8 µM |  |  | 9.6 fold | 5.2 µM |  |  | not active | directly bind to Mcl-1 | 2.5 µM | IC50 (Bcl-xL/Bim; Table 3-B structure II, n ≥ 3, read-out: Bcl-xL-Bim IC50 (average ± SEM)): > 50 µM; binding to Mcl-1 by NMR (Mcl-1 [11]; listed as II-4): binding to the BH3 pocket of Mcl-1; also recorded: confirmed binding to Mcl-1; IC50 (Mcl-1/Bim; Table 3-B structure II, n ≥ 3, read-out: Mcl-1-Bim IC50 (average ± SEM)): 5.2 ± 0.8 µM |
| O=C(c1ccc(P(=O)(O)O)cc1O)c1[nH]c(Cl)c(Cl)c1-n1c(C(=O)c2ccc(P(=O)(O)O)cc2O)cc(Cl)c1Cl [Compound I-20, ((4,4′,5,5′-Tetrachloro-1′H-[1,3′-bipyrrole]-2,2′-dicarbonyl)bis(3-hydroxy-4,1-phenylene))diphosphonic acid] | improvement in aqueous solubility |  |  | 27.3 ± 7.2 µM |  |  | 10.9 ± 3.1 µM |  |  |  | little effect on Mcl-1, Bim or caspase 3 | less active | directly bind to Mcl-1 | 3.5 µM | binding to Mcl-1 by NMR (Mcl-1 [11]): binding to the BH3 pocket of Mcl-1; also recorded: confirmed binding to Mcl-1; activity against Mcl-1/Bim in words (Mcl-1/Bim; listed as 8a): slightly less potent than 1; also recorded: less active |
